Patent US20240148821A1, “PHARMACEUTICAL USE OF CYCLIC PEPTIDE COMPOUND” (CHUGAI SEIYAKU KABUSHIKI KAISHA, priority 2021, published 2024)
Numbered stars: 1 amine (or outer) side, 2 acyl side, 3 side chain; on linkers, the order of the positions; unused ones are H or OH. Bridge positions count the residues as written; N and C are the ends. Square brackets hold non-standard residues; d marks the D form. Peptide text beside a SMILES is read from it. * marks the point of attachment. hPhe(3-Cl-4-CF3) = N[C@@H](CCc1ccc(C(F)(F)F)c(Cl)c1)C(=O)O; hPhe(3-F,4-CF3) = N[C@@H](CCc1ccc(C(F)(F)F)c(F)c1)C(=O)O; NMePhe(4-CF3) = CN[C@@H](Cc1ccc(C(F)(F)F)cc1)C(=O)O; NMePhe(4-Me) = CN[C@@H](Cc1ccc(C)cc1)C(=O)O; NMeNle(6-CHF2) = CN[C@@H](CCCCC(F)F)C(=O)O; NMedβ3hAla = C[C@H](CC(=O)[*:2])N(C)[*:1]; NMeAla(cPent) = CN[C@@H](CC1CCCC1)C(=O)O; NMeGly(cPent) = CN[C@H](C(=O)O)C1CCCC1; Phe(3-I) = N[C@@H](Cc1cccc(I)c1)C(=O)O; NMeCha = CN[C@@H](CC1CCCCC1)C(=O)O; NMeChg = CN[C@H](C(=O)O)C1CCCCC1; NMeI = CC[C@H](C)[C@H](NC)C(=O)O; NMeD = CN[C@@H](CC(=O)O)C(=O)O; CH2CONHtBu = CC(C)(C)NC(=O)C*; NMeL = CN[C@@H](CC(C)C)C(=O)O; Chg = N[C@H](C(=O)O)C1CCCCC1; dNMeAbu = CC[C@@H](NC)C(=O)O; d(β3hA) = C[C@@H](N)CC(=O)O; NMeS = CN[C@@H](CO)C(=O)O; Pip = O=C(O)[C@@H]1CCCCN1; dNMeS = CN[C@H](CO)C(=O)O; Morpholide = C1CN(*)CCO1; NMeA = CN[C@@H](C)C(=O)O; NMeAib = CNC(C)(C)C(=O)O; Nle = CCCC[C@H](N)C(=O)O; Piperidide = C1CCN(*)CC1; Pra = C#CC[C@H](N)C(=O)O; dNMeA = CN[C@H](C)C(=O)O; Ac5c = NC1(C(=O)O)CCCC1; Aze = O=C(O)[C@@H]1CCN1; CH2CMe2OH = CC(C)(O)C*; Aib = CC(C)(N)C(=O)O; Isopentyl = CC(C)CC*; NEtG = CCNCC(=O)O; Sar = CNCC(=O)O

Legend:
[1] = biological target: protein-protein interaction between Kras and SOS1 (biotin-tagged human Kras loaded with GDP, His-tagged human SOS1) (Homo sapiens (Human), UniProt P01116, G12D); assay: Protein-protein interaction inhibition between Kras and SOS1 (KrasG12D-SOS PPI) using AlphaScreen; type: biochemical; settings: AlphaScreen; biotin-tagged human Kras loaded with GDP, His-tagged human SOS1; read-out: KRAS G12D-SOS PPI IC50;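 note: kras produced in E. coli, Ni-coupled donor beads and streptavidin acceptor beads, excitation 680 nm with emission detected at 520–620 nm via singlet oxygen transfer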
[2] = tested on: Human pancreatic cancer cell line AsPC-1 (G12D mutation Kras); assay: AsPC-1 cell growth inhibition (AsPC-1 CGI); type: cell-based; settings: read-out: AsPC-1 cell growth inhibition, 50% growth inhibitory concentration (IC50 value); 96 hours, CellTiter-Glo, values classified in ranges
Protocol: Test compounds were serially dilated with dimethyl sulfoxide, and 200 nL was then dispensed to a U-bottom 96-well plate using Labcyte Echo. […] The cell suspension was dispensed to a. plate containing a test compound at 100 μL per well and incubated at 37° C. in a 5% carbon dioxide gas incubator. 96 hours later, 80 μL of CellTiter-Glo (Promega) was added to each well and fluorescence was measured.

Structure (SMILES)	IC50 [1]	IC50 [2]
CC[C@H](C)[C@@H]1NC(=O)[C@H](CC2CCCC2)N(C)C(=O)C[C@@H](C(=O)N2CCOCC2)N(C)C(=O)[C@H]([C@@H](C)CC)N(C)C(=O)C2(CCCC2)NC(=O)[C@@H]2CCCN2C(=O)[C@H](CCc2ccc(C(F)(F)F)c(Cl)c2)NC(=O)CN(C)C(=O)[C@H](Cc2ccc(C(F)(F)F)cc2)N(C)C(=O)[C@@H]2CCN2C(=O)[C@H](C)NC1=O [Compound 1371] ([NMeAla(cPent)]IA[Aze][NMePhe(4-CF3)][Sar][hPhe(3-Cl-4-CF3)]P[Ac5c][NMeI][NMeD]-Morpholide; lactam N-11)	0.0016 µM	≤ 0.02 µM
CC[C@H](C)[C@@H]1NC(=O)[C@H](C)N(C)C(=O)C[C@@H](C)N(C)C(=O)[C@H](CC(C)C)NC(=O)C(C)(C)N(C)C(=O)[C@H](CC(C)C)NC(=O)[C@H](CCc2ccc(C(F)(F)F)c(Cl)c2)NC(=O)CN(C)C(=O)[C@H](CC2CCCCC2)N(C)C(=O)CN(C)C(=O)CN(C)C1=O [Compound 1380] (cyclo(I[Sar][Sar][NMeCha][Sar][hPhe(3-Cl-4-CF3)]L[NMeAib]L[NMedβ3hAla][NMeA]))	0.016 µM	> 0.5 µM
CC[C@H](C)[C@@H]1NC(=O)[C@H](CC(C)C)N(C)C(=O)C[C@@H](C)N(C)C(=O)[C@H](CC(C)C)NC(=O)C(C)(C)N(C)C(=O)[C@H](CC(C)C)NC(=O)[C@H](CCc2ccc(C(F)(F)F)c(Cl)c2)NC(=O)CN(C)C(=O)[C@H](Cc2ccc(C)cc2)N(C)C(=O)CN(C)C(=O)CN(C)C1=O [Compound 1388] (cyclo(I[Sar][Sar][NMePhe(4-Me)][Sar][hPhe(3-Cl-4-CF3)]L[NMeAib]L[NMedβ3hAla][NMeL]))	0.01 µM	> 0.5 µM
CC[C@H](C)[C@@H]1NC(=O)[C@H](C)N(C)C(=O)C[C@@H](C)N(C)C(=O)[C@H](CC(C)C)NC(=O)C(C)(C)N(C)C(=O)[C@H](CC(C)C)NC(=O)[C@H](CCc2ccc(C(F)(F)F)c(Cl)c2)NC(=O)CN(C)C(=O)[C@H](Cc2ccc(C(F)(F)F)cc2)N(C)C(=O)CN(C)C(=O)CN(C)C1=O [Compound 1397] (cyclo(I[Sar][Sar][NMePhe(4-CF3)][Sar][hPhe(3-Cl-4-CF3)]L[NMeAib]L[NMedβ3hAla][NMeA]))	0.0064 µM	> 0.5 µM
CC[C@H](C)[C@@H]1NC(=O)[C@H](C)N(C)C(=O)C[C@@H](C)N(C)C(=O)[C@H](CC(C)C)NC(=O)C(C)(C)N(C)C(=O)[C@H](CC(C)C)NC(=O)[C@H](CCc2ccc(C(F)(F)F)c(Cl)c2)NC(=O)CN(C)C(=O)[C@H](Cc2ccc(C)cc2)N(C)C(=O)CN(C)C(=O)CN(C)C1=O [Compound 1398] (cyclo(I[Sar][Sar][NMePhe(4-Me)][Sar][hPhe(3-Cl-4-CF3)]L[NMeAib]L[NMedβ3hAla][NMeA]))	0.0066 µM	> 0.5 µM
CC[C@H](C)[C@@H]1NC(=O)[C@H](CC(C)C)N(C)C(=O)C[C@@H](C(=O)N2CCCCC2)N(C)C(=O)[C@H](CC(C)C)NC(=O)C(C)(C)N(C)C(=O)[C@@H]2CCCCCC[C@@H](C(=O)N(C)CC(=O)N[C@@H](Cc3cccc(I)c3)C(=O)N2)N(C)C(=O)CN(C)C(=O)CN(C)C1=O [Compound 1411, (1S,7S,10S,14S,17S,26S,32S)-32-[(3-iodophenyl)methyl]-7,14-diisobutyl-3,4,4,9,13,19,22,25,28-nonamethyl-17-[(1S)-1-methylpropyl]-10-(piperidine-1-carbonyl)-3,6,9,13,16,19,22,25,28,31,34-undecazabicyclo[24.8.6]tetracontane-2,5,8,12,15,18,21,24,27,30,33-undecone]	0.082 µM	> 0.5 µM
CCCC[C@@H]1NC(=O)[C@H](Cc2cccc(I)c2)NC(=O)CN(C)C(=O)[C@H](CC2CCCC2)N(C)C(=O)[C@@H]2CCN2C(=O)[C@H](C)N(C)C(=O)[C@H]([C@@H](C)CC)NC(=O)[C@@H]2CCCCN2C(=O)C[C@@H](C(=O)N2CCCCC2)N(C)C(=O)[C@H](CC(C)C)NC(=O)C(C)(C)N(C)C1=O [Compound 1424] ([Pip]I[NMeA][Aze][NMeAla(cPent)][Sar][Phe(3-I)][Nle][NMeAib]L[NMeD]-Piperidide; lactam N-11)	0.2 µM	> 0.5 µM
CC[C@@H]1C(=O)NC2(CCCC2)C(=O)N(C)[C@@H](C2CCCCC2)C(=O)N(C)[C@H](C(=O)N2CCCCC2)CC(=O)N(C)[C@@H](CC(C)C)C(=O)N[C@@H]([C@@H](C)CC)C(=O)N(C)CC(=O)N(C)CC(=O)N(C)[C@@H](CC2CCCCC2)C(=O)N(C)CC(=O)N[C@@H](CCc2ccc(C(F)(F)F)c(Cl)c2)C(=O)N1C [Compound 1435] ([NMeL]I[Sar][Sar][NMeCha][Sar][hPhe(3-Cl-4-CF3)][dNMeAbu][Ac5c][NMeChg][NMeD]-Piperidide; lactam N-11)	0.0074 µM	> 0.5 µM
CC[C@H](C)[C@@H]1NC(=O)[C@H](CC(C)C)N(C)C(=O)C[C@@H](C(=O)N2CCCCC2)N(C)C(=O)[C@H](C2CCCCC2)N(C)C(=O)C2(CCCC2)NC(=O)[C@@H](COCCC(C)C)N(C)C(=O)[C@H](CCc2ccc(C(F)(F)F)c(Cl)c2)NC(=O)CN(C)C(=O)[C@H](CC2CCCCC2)N(C)C(=O)CN(C)C(=O)CN(C)C1=O [Compound 1436] ([NMeL]I[Sar][Sar][NMeCha][Sar][hPhe(3-Cl-4-CF3)][dNMeS](Isopentyl)[Ac5c][NMeChg][NMeD]-Piperidide; lactam N-11)	0.039 µM	> 0.5 µM
CC[C@H](C)[C@@H]1NC(=O)[C@H](CC(C)C)N(C)C(=O)C[C@@H](C(=O)N2CCCCC2)N(C)C(=O)[C@H](C2CCCCC2)N(C)C(=O)C2(CCCC2)NC(=O)[C@@H](CO)N(C)C(=O)[C@H](CCc2ccc(C(F)(F)F)c(Cl)c2)NC(=O)CN(C)C(=O)[C@H](CC2CCCCC2)N(C)C(=O)CN(C)C(=O)CN(C)C1=O [Compound 1448] ([NMeL]I[Sar][Sar][NMeCha][Sar][hPhe(3-Cl-4-CF3)][dNMeS][Ac5c][NMeChg][NMeD]-Piperidide; lactam N-11)	0.0011 µM	> 0.5 µM
CC[C@H](C)[C@@H]1NC(=O)[C@H](CC(C)C)N(C)C(=O)C[C@@H](C)NC(=O)[C@H](CC(C)C)N(C)C(=O)C(C)(C)NC(=O)[C@H](CC(C)C)N(C)C(=O)[C@H](CCc2ccc(C(F)(F)F)c(Cl)c2)NC(=O)CN(C)C(=O)[C@H](CCCCC(F)F)N(C)C(=O)CN(C)C(=O)CN(C)C1=O [Compound 1451] (cyclo([Aib][NMeL][d(β3hA)][NMeL]I[Sar][Sar][NMeNle(6-CHF2)][Sar][hPhe(3-Cl-4-CF3)][NMeL]))	0.02 µM	> 0.5 µM
CC(C)C[C@H]1C(=O)N[C@@H](C2CCCCC2)C(=O)N(C)CC(=O)N(C)CC(=O)N(C)[C@@H](CCCCC(F)F)C(=O)N(C)CC(=O)N[C@@H](CCc2ccc(C(F)(F)F)c(F)c2)C(=O)N(C)[C@@H](CC(C)C)C(=O)NC(C)(C)C(=O)N(C)[C@@H](CC(C)C)C(=O)N[C@H](C)CC(=O)N1C [Compound 1460] (cyclo([Aib][NMeL][d(β3hA)][NMeL][Chg][Sar][Sar][NMeNle(6-CHF2)][Sar][hPhe(3-F,4-CF3)][NMeL]))	0.13 µM	> 0.5 µM
CC[C@H](C)[C@@H]1NC(=O)[C@H](C)N(C)C(=O)C[C@@H](C)NC(=O)[C@H](C2CCCC2)N(C)C(=O)C2(CCCC2)NC(=O)[C@@H]2CCCN2C(=O)[C@H](CCc2ccc(C(F)(F)F)c(Cl)c2)NC(=O)[C@@H](C)N(C)C(=O)[C@H](Cc2ccc(C)cc2)N(C)C(=O)[C@@H]2CCN2C(=O)CN(C)C1=O [Compound 1461] (cyclo([Ac5c][NMeGly(cPent)][d(β3hA)][NMeA]I[Sar][Aze][NMePhe(4-Me)][dNMeA][hPhe(3-Cl-4-CF3)]P))	0.037 µM	> 0.5 µM
C#CC[C@@H]1NC(=O)[C@H](CC(C)C)N(C)C(=O)C[C@@H](C)NC(=O)[C@H](CC(C)C)N(C)C(=O)C(C)(C)NC(=O)[C@H](CC(C)C)N(C)C(=O)[C@H](CCc2ccc(C(F)(F)F)c(F)c2)NC(=O)CN(C)C(=O)[C@H](CC2CCCCC2)N(C)C(=O)CN(C)C(=O)CN(C)C1=O [Compound 1474] (cyclo([Aib][NMeL][d(β3hA)][NMeL][Pra][Sar][Sar][NMeCha][Sar][hPhe(3-F,4-CF3)][NMeL]))	0.24 µM	> 0.5 µM
CC[C@H](C)[C@@H]1NC(=O)[C@H](COCC(C)(C)O)N(C)C(=O)C[C@@H](C)NC(=O)[C@H](CC(C)C)N(C)C(=O)C(C)(C)NC(=O)[C@H](CC(C)C)N(C)C(=O)[C@H](CCc2ccc(C(F)(F)F)c(Cl)c2)NC(=O)CN(C)C(=O)[C@H](COCCC(C)C)N(C)C(=O)CN(C)C(=O)CN(CC)C1=O [Compound 1476] (cyclo([Aib][NMeL][d(β3hA)][NMeS](CH2CMe2OH)I[NEtG][Sar][NMeS](Isopentyl)[Sar][hPhe(3-Cl-4-CF3)][NMeL]))	0.046 µM	> 0.5 µM
CC[C@H](C)[C@@H]1NC(=O)[C@H](C)N(C)C(=O)C[C@@H](C)NC(=O)[C@H](C2CCCC2)N(C)C(=O)C2(CCCC2)NC(=O)[C@@H]2CCCN2C(=O)[C@H](CCc2ccc(C(F)(F)F)c(Cl)c2)NC(=O)CN(C)C(=O)[C@H](CC2CCCCC2)N(C)C(=O)[C@@H]2CCN2C(=O)[C@H](C)N(C)C1=O [Compound 1491] (cyclo([Ac5c][NMeGly(cPent)][d(β3hA)][NMeA]I[NMeA][Aze][NMeCha][Sar][hPhe(3-Cl-4-CF3)]P))	0.0037 µM	> 0.5 µM
CC[C@H](C)[C@@H]1NC(=O)[C@H](COCC(=O)NC(C)(C)C)N(C)C(=O)C[C@@H](C)NC(=O)[C@H](CC(C)C)N(C)C(=O)C(C)(C)NC(=O)[C@H](CC(C)C)N(C)C(=O)[C@H](CCc2ccc(C(F)(F)F)c(Cl)c2)NC(=O)CN(C)C(=O)[C@H](COCCC(C)C)N(C)C(=O)CN(C)C(=O)CN(CC)C1=O [Compound 1495] (cyclo([Aib][NMeL][d(β3hA)][NMeS](CH2CONHtBu)I[NEtG][Sar][NMeS](Isopentyl)[Sar][hPhe(3-Cl-4-CF3)][NMeL]))	0.12 µM	> 0.5 µM
